US5064860A, “Method of inhibiting superoxide generation” (G. D. Searle & Co., priority 1990, dated 1991)
Entries after “also recorded” stand apart in the source; their conditions may differ. Read-outs that look alike come from different tables or passages of the source.

Columns and labels:
[1] = test system: FMLP-stimulated human neutrophils; assay: Human neutrophil superoxide generation, FMLP-stimulated (cytochrome C reduction); assay type: cell-based; conditions: for IC50: read-out: Inhibition of FMLP Induced Superoxide IC50
Description: Human neutropil suproxide generation: Superoxide generation by formyl-methionyl-leucyl-phenylalanine (FMLP)-stimulated neutrophils was quantitated by the reduction of cytochrome C (Badwey, J. A., Curnutte, J. T. and Karnovsky, M. L., cis-Polyunsaturated fatty acids induce high levels of superoxide production by human neutrophils. J. Biol. Chem. 256: 12640-12643, 1981.) To 5 million neutrophils in 2.85 ml of Krebs-Ringer phosphate buffer, pH 7.2, 50 μl of inhibitor (in 10% DMSO/buffer), and 50 ul ferricytochrome C (5 mM, stock) were added and preincubated for 3 minutes at 37° C. Absorption measurements at 550 nm were recorded at start of preincubation. Fifty ul FMLP (6 uM, stock) was added to initiate reaction. A plateau was reached within 3 minutes and this reading--initial reading (before addition of FMLP) was used to calculate nanomoles of superoxide generated based on a molar extinction coefficient of 2.1×10^4 cm^-1 mole^-1.
Isolation of human neutrophils: Human neutrophils were isolated from freshly drawn blood of healthy donors. Two ml of 5% dextran (MW 200,000-300,000) in saline was added to 10 ml aliquots of blood, mixed and placed upright for 45 min. at 37° C. Approx. 8-10 ml of the plasma-white cell suspension from the dextran sedimentation was layered on 3 ml of Ficol-paque in a ml tube and centrifuged at 400 g for 30 min. The supernate, containing plasma and platelets, was discarded by aspiration, and the pellet, containing predominantly neutrophils, was resuspended in 1 ml saline. The suspension was transferred to a clean tube, and pooled with other aliquots of blood treated similarly. The pooled suspension was centrifuged at 350 g for 5 min. and supernate discarded. The pellet was resuspended in 5 ml of 0.05% NaCl with a plastic Pasteur pipette for 25 seconds to lyse contaminating red cells, then 5 ml of 1.75% NaCl added to regain isotonicity. The red cell lysing procedure was repeated, the cells suspended in appropriate buffer (depending on assay) and counted.

[2] = target: T1, 5-lipoxygenase (Rattus norvegicus, UniProt P12527); assay: Inhibition of 5-lipoxygenase, in vitro (5-HETE synthesis from [1-14C]-arachidonic acid, RBL-1 supernatant); assay type: biochemical; conditions: for IC50: RBL-1 100,000×g supernatant
T1 construct: Rat Basophilic Leukemia Cell Homogenate (RBL-1) serves as a 5-lipoxygenase enzyme source; endogenous in cells; host or cells: RBL-1 (rat basophilic leukemia) cells, 100,000×g supernatant of homogenate
T1 sequence (P12527 1-673): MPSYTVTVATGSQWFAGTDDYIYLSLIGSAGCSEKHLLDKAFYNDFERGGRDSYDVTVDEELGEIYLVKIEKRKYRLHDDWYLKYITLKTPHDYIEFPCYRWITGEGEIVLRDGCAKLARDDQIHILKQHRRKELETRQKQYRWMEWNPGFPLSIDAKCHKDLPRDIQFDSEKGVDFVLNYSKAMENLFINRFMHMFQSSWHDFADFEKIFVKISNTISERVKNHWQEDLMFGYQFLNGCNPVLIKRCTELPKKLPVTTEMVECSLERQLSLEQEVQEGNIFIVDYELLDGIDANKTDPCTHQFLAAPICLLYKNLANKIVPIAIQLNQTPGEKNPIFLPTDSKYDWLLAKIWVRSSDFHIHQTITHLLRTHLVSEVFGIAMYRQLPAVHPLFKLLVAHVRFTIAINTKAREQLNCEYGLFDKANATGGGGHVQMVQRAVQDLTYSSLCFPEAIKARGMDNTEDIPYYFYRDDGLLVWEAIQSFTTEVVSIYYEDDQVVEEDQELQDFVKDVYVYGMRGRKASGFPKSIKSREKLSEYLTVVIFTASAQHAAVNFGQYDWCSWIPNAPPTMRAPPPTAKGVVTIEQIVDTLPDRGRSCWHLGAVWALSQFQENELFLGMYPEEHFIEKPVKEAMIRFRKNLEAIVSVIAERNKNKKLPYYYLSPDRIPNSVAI
Description: Inhibition of 5-lipoxygenase, in vitro:
anti-inflammatory, anti-allergy activities.
The 100,000×g supernatant fraction of Rat Basophilic Leukemia Cell Homogenate (RBL-1) serves as a 5-lipoxygenase enzyme source. The enzyme is incubated with [1-^14 C)-arachidonic acid and Ca++ in the presence and absence of test compound. The product of 5-lipoxygenase, 5-hydroxyeicosatetraenoic acid (5-HETE), is separated by thin-layer chromatography and measured by radioactivity. A compound inhibiting 5-HETE synthesis by 30% or more is considered active at that concentration.

[3] = Neutrophil, human neutrophils, FMLP

SMILES | IC50 [1, 3] | IC50 [2] | also measured
C[C@H](Sc1cc(C(C)(C)C)c(O)c(C(C)(C)C)c1)[C@@H](C)OCC(=O)O (relative stereo) [Example 9, 11, (±)[2S*-[[3,5-bis(1,1-dimethyl-ethyl)-4-hydroxyphenyl]thio]-1R*-methylpropoxy]acetic acid] | 11 µM | 4.9 µM | 
C[C@@H](OCC(=O)O)[C@H](C)[S+]([O-])c1cc(C(C)(C)C)c(O)c(C(C)(C)C)c1 (relative stereo) [Example 12, (±)[2S*-[[3,5-bis(1,1-dimethylethyl)-4-hydroxyphenyl]sulfinyl]-1R*- methylpropoxy]acetic acid] | ~50 µM |  | inhibition at 100 µM [2]: 12%
C[C@@H](OCC(=O)O)[C@H](C)S(=O)(=O)c1cc(C(C)(C)C)c(O)c(C(C)(C)C)c1 (relative stereo) [Example 13, (±)[2S*-[[3,5-bis(1,1-dimethylethyl)-4-hydroxyphenyl]sulfonyl]-1R*- methylpropoxy]acetic acid] | ~30 µM |  | inhibition at 100 µM [2]: 4%
CC(C)(C)c1cc(SCCSCC(=O)O)cc(C(C)(C)C)c1O [Example 4, 5, [[2-[[3,5-bis(1,1-dimethylethyl)-4-hydroxyphenyl]thio]ethyl]thio]aceticacid] | 5 µM | 3.3 µM | 

Second part, led by results:

IC50 [1, 3] | IC50 [2] | SMILES | also measured
 | 4.3 µM | C[C@H](Sc1cc(C(C)(C)C)c(O)c(C(C)(C)C)c1)[C@@H](C)OCC(=O)O (single isomer, unassigned) [Example 17, (-)[2S*-[[3,5-bis(1,1-dimethylethyl)-4-hydroxyphenyl]thio]-1R*-methylpropoxy]acetic acid] | IC50 ([1]; human neutrophils, FMLP): 10 µM
10 µM | 3.5 µM | C[C@H](Sc1cc(C(C)(C)C)c(O)c(C(C)(C)C)c1)[C@@H](C)OCC(=O)O (single isomer, unassigned) [Example 18, (+)[2S*-[[3,5-bis(1,1-dimethylethyl)-4-hydroxyphenyl]thio]-1R*-methylpropoxy]acetic acid] | 
 | 0.32 µM | CN(CCc1ccccn1)C(=O)CCSc1cc(C(C)(C)C)c(O)c(C(C)(C)C)c1 [Formula IV, reference compound] | activation at 5 µM ([1]; Homo sapiens, Neutrophil, at 5 μm, read-out: increase in superoxide generated by neutrophils): 50%; activation at 10 µM ([1]; Homo sapiens, Neutrophil, at 10 μm, read-out: increase in superoxide generated by neutrophils): 227%; FMLP Induced Superoxide, result in words ([1]; human neutrophils, FMLP): Stimulates; also recorded: did not inhibit superoxide generation; 5-lipoxygenase inhibition, result in words [2]: inhibited 5-lipoxygenase
